The text below walks through data of patent US6569883B1, “Medicaments” (Glaxo Group Limited, priority 1985, dated 2003).

Holding throughout (format): in vivo
Experiment [1] concerns guinea-pigs. Kind of experiment: Gastric emptying in guinea-pigs (passage of barium sulphate spheres, X-ray location). As to conditions: guinea pig. Here is the method: Test compound: 1,2,3,9-tetrahydro-9-methyl-3-[(2-methyl-1H-imidazol-1-yl)methyl]-4H-carbazol-4-one hydrochloride dihydrate. The effect of the test compound on gastric emptying was determined in guinea-pigs by following the progress of polystyrene-coated barium sulphate spheres (1 mm diameter) through the gut. The experimental method was based on that described by B. Costall et. al., Eur. J. Pharmacol 91, 197-205, 1983 and B. Cox et. al., Br. J. Pharmacol. 70, 104, 1980.
The spheres (approximatley 30 in number) were administered orally in 0.2 ml carboxymethylcellulose with 0.05 ml glycerine. At the same time, the test compound was administered intraperitoneally at doses of 0.001, 0.01 and 0.1 mg/kg. The control animals received saline, administered intraperitoneally, in place of the test compound. Passage of the spheres through the gut was monitored at 30-60 minute intervals over a period of 2 hours by X-ray location. The number of spheres leaving the stomach was recorded and expressed as a percentage of the total.

The test system of experiment [2] is ferrets. The experiment can be described thus: Cisplatin-induced emesis in ferrets, test compound i.v. To be noted: ferret. The procedure:
Both the test compound and cisplatin were prepared and administered in normal saline. The dose of test compound was calculated as the free base.
Emesis was induced in groups of 6 male ferrets weighing between 1.5-2 kg, by intravenous administration of cisplatin at a dose of 10 mg/kg. The onset of emesis occurred between 38 and 75 minutes after injection and over a period of 2 hours the number of vomits/retches (episodes) was in the range 30-62 (average 42±5 vomits/retches per 2 h). Behavioural changes characteristic of emesis were also noted.
The test compound was administered to groups of 6 male ferrets (1.5-2 kg) by intravenous administration at doses of 0.01, 0.1 and 1 mg/kg, immediately prior to administration of cisplatin as described above.

Experiment [3] has as its system ferrets. Kind of experiment: Cisplatin-induced emesis in ferrets, test compound i.p. As to conditions: ferret, cisplatin 9 mg/kg i.p. + test compound 1 mg/kg i.p. 30 minutes before and 1 hour after cisplatin. The procedure: Thus cisplatin was administered intraperitoneally to a group of 4 male ferrets at a dose of 9 mg/kg, and the time to onset of emesis and the number of emetic episodes were recorded. In a second group of four male ferrets the test compound was administered at a dose of 1 mg/kg i.p. 30 minutes before and 1 hour after intraperitoneal administration of cisplatin.

Setting [4] is: cisplatin 10 mg/kg i.v. + test compound 0.01 mg/kg i.v.

Consider `Cc1nccn1CC1CCc2c(c3ccccc3n2C)C1=O.Cl.O.O` (stereo not drawn) [test compound, 1,2,3,9-tetrahydro-9-methyl-3-[(2-methyl-1H-imidazol-1-yl)methyl]-4H-carbazol-4-one hydrochloride dihydrate], for which the “Mean % Increase in gastric emptying (± s.e.)” value stood at 21 ± 8.7% in experiment [1] (0.001 mg/kg i.p., 1 hour); 57 ± 10.5% in experiment [1] (0.001 mg/kg i.p., 2 hours); 33 ± 3.6% in experiment [1] (0.01 mg/kg i.p., 1 hour); 76.5 ± 11.2% in experiment [1] (0.01 mg/kg i.p., 2 hours); 47 ± 7.6% in experiment [1] (0.1 mg/kg i.p., 1 hour); 68 ± 5.0% in experiment [1] (0.1 mg/kg i.p., 2 hours). Further, in experiment [2] (setting [4]), the Duration of emesis was found to be 1 h. For the same compound, in experiment [2] (setting [4]), the Intensity of emesis is reported as 17 ± 2.9 episodes 2 h. Also, the Onset of emesis in experiment [2] (setting [4]) fell in the range of 89 to 109 min. In addition, the “Emesis and behavioural changes” value is “Emesis and behavioural changes were completely” in experiment [2] (cisplatin 10 mg/kg i.v. + test compound 0.1 mg/kg i.v.); “Emesis and behavioural changes were completely” in experiment [2] (cisplatin 10 mg/kg i.v. + test compound 1 mg/kg i.v.). Further, in experiment [3], the “Emetic response (onset of emesis, emetic episodes, retches)” value is listed as “emetic response completely”.
